These results are taken from patent publication US9326512B2, “Synergistic combination of a flurochloridone compound and zinc pyrithione for dry film protection” (Rohm and Haas Company, priority 2013, dated 2016).

The inhibition is the percentage by which the read-out fell short of the control. In general, % inhibition refers to the drop in the measured response relative to a control, in per cent.

In this assay the test system is Chlorella sp. ATCC 7516. Put plainly: Algal efficacy testing of dry paint films (modified ASTM 5589, 6-well plates). Type of assay: cell-based. To be noted: 3 weeks; for Total conc (lowest total biocide concentration in paint passing ≧75% inhibition): pass level ≧75% algal growth inhibition, dry paint film coupon. The protocol:
These paints were then diluted with an antimicrobial free acrylic/silicone based paint and mixed to prepare targeted concentrations of antimicrobial compounds for the testing. The total biocides concentrations tested were 125, 250, 500, 1000, 2000 and 5000 ppm. After biocides addition or dilution, the paints were mixed 90 seconds with the horse power shaker (AXEL 75M3372/Agitateur SO-10MI) until uniformity was achieved. Paints containing different antimicrobial compounds at the same levels were mixed together in order to obtain the desired ratio of antimicrobial compounds. After one day, the paints were applied to Schleicher & Schuell filter paper at 280 μm wft and dried for 3 days at room temperature avoiding direct exposure to sunlight. Square discs (1.6 cm×1.6 cm) were cut out from each panel and were used as the substrate for algal efficacy tests. This sample size allowed for an agar border when the sample disc was placed into the well of the test plate.
Algal efficacy was tested according to modified ASTM 5589 which is a standard accelerated test method for determining resistance of various coatings (including paints) to algal defacement. To accommodate for high-throughput screening, this method was scaled down from petri dishes to 6-well plates. Bold Modified Basal Freshwater Nutrient Solution was used as growth medium. A single coated filter paper coupon was placed with a pair of sterile forceps at the center of the agar plug (on top) with the painted surface facing upwards.
Each well that contains a tested coupon was inoculated with 1750 μl of algal suspensions (1×10^6 cfu/ml) making sure that the whole surface (paint film as well as the agar surrounding it) was evenly covered. The plates were incubated at room temp (21° C.-25° C.) with cyclic exposure to light and dark phases, for a period of three weeks.
At the end of the three week incubation period, the samples were scored for percent inhibition regarding color intensity compared to the blank sample.
The Synergy Index calculation was performed as follows.
The SI is calculated based on F. C.
SI value of <1 in the formula indicates a synergism of the blended biocides exists.
The minimal targeted inhibition was set at 75%, meaning a coupon with at least 75% algal growth inhibition was considered as a pass.

Take `O=C1C(Cl)C(CCl)CN1c1cccc(C(F)(F)F)c1` (stereo not shown) [Flurochloridone, 3-chloro-4-(chloromethyl)-1-[3-(trifluoromethyl)phenyl]-2-pyrrolidinone]: the “Total conc (lowest total biocide concentration in paint passing ≧75% inhibition)” value is 5000 ppm. Besides, the inhibition at 5000 ppm (504 h, total conc 5000 ppm in paint) worked out at 85%.

As for `[O-][n+]1ccccc1[S][Zn][S]c1cccc[n+]1[O-]` [ZnPT, bis(2-pyridylthio)zinc 1,1′-dioxide], the “Total conc (lowest total biocide concentration in paint passing ≧75% inhibition)” value was determined as 500 ppm. The “% inhibition” value (total conc 500 ppm in paint) is on record as 95%.
